Legend:
[1] = system: U937 cells; assay: Nitric oxide production (Griess) in U937 cells; type: cell-based, human; conditions: 24 h, 1 μg/ml LPS, 100 μM ACh
[2] = system: NFκB; assay: NFκB localisation by immunohistochemistry in mouse bone marrow macrophages; type: cell-based; conditions: LPS, LPS+ACh
[3] = system: IL-6; assay: IL-6 production by peritoneal macrophages from FVB/N and TgR mice; type: cell-based, mouse; conditions: 100 μM ACh
[4] = system: IL-12; assay: IL-12 production by peritoneal macrophages from FVB/N and TgR mice; type: cell-based, mouse
[5] = system: TNFα; assay: TNFα production by peritoneal macrophages from FVB/N and TgR mice; type: cell-based, mouse
[6] = system: IL-1β, TNFα; assay: IL-1β, TNFα production (ELISA) by bone marrow dendritic cells from FVB/N and TgR mice; type: cell-based, mouse; conditions: TgR dendritic cells, LPS and ACh

With CC(=O)OCC[N+](C)(C)C.[Cl-] [ACh, Acetylcholine chloride] the “nitric oxide (NO) levels” value [1] was “reduced NO levels, and blocked the LPS-induced increases”, the “relocation of NFκB from the cytoplasm to the nucleus” value [2] was “significantly attenuated this effect” and the “LPS-induced IL6 increase on co-administration of ACh” value [3] was “prevented this increase”. The “IL-12 levels on co-administration of ACh with LPS” value ([4]; TgR macrophages) was “elevated in TgR macrophages”, the “IL-12 levels on co-administration of ACh with LPS” value ([4]; wild-type macrophages) was “significantly lowered” and the “LPS-induced increase in TNFα on co-administration of ACh” value [5] was “significantly attenuated the LPS-induced increase in TNFα”. The “up-regulation of inflammatory cytokines with ACh” value [6] was “not ACh-preventable”.
